Test results published in patent US12225917B2 (priority 2017, dated 2025).

Columns and labels:
[1] = Tissue residue study by LC-MS/MS after in-feed administration (Example 7): muscle and liver; settings: for Mean residue, Breast / Mean residue, Lower leg / Mean residue, Upper leg / Mean residue IRP001, Liver: n = 3
[2] = system: Clostridium Difficile; assay: In vitro MIC and MBC against Clostridium difficile (Example 6); format: cell-based; settings: Clostridioides difficile, clinical isolate of C. difficile; test agent Berberine sulfate
[3] = system: E. coli causing scour; assay: In vitro MIC against pig disease strains incl. scour-inducing E. coli (Example 5); format: cell-based; settings: Escherichia coli
[4] = system: Eimeria acervulina, E. maxima, and E. tenella; assay: Anticoccidial efficacy/sensitivity cage study (Example 9): lesion scores, oocysts per gram fecal material, coccidiosis mortality; settings: for % Cocci Mort.: Day 0-20, infected
[5] = General safety in broilers reared to market weight by histology (Example 8); format: in vivo, broiler chickens
Excerpt: This study evaluates the safety of IRP001 chloride in broilers through examination of histology.
The objective of this study was to test the general safety of IRP001 chloride in broilers reared to market weight by examination of histology.
The experiment consisted of the following treatments (1 pen per treatment, Table 54).
Birds were kept in a pen having an area of 4×10=40 ft^2, with clean wood shavings as bedding with a thickness of approximately 4 inches. The pen had 5 feet high side walls with a bottom 1 ½ feet being of solid wood to prevent bird migration.
The temperature of the building was monitored. Environmental conditions during the trial (temperature) were appropriate (optimum) to the age of the animals. Illumination was provided by fluorescent bulbs placed above the pens. The diets were provided ad libitum in one tube-type feeder per pen. From D0 until D7, feed was also supplied on a tray placed on the litter of each pen. Water was provided ad libitum from one Plasson drinker per pen.
Standard floor pen management practices were used throughout the experiment. Animals and housing facilities were inspected twice daily, observing and recording the general health status, constant feed and water supply as well as temperature, removing all dead birds, and recognizing unexpected events. Birds found dead during the study were noted on the Daily Mortality Record, and were not replaced. Pen number, the date of mortality, sex, weight, and diagnosis were recorded.
Day of hatch male Cobb chicks were obtained and ten male broiler chicks were placed in each pen. Accountabilities of all test animals and any extra birds were recorded on animal disposition form. The birds were sexed at the hatchery. The breeder flock history and vaccination record at the hatchery were recorded. Bird weights by pen were recorded on D0 and 42.
All weights were by pen. Treatment Starter feed was fed from D0 to 21. On D21, non-consumed Starter was weighed by pen and discarded. Grower feed was issued and fed until D35. On D35, non-consumed Grower was weighed by pen and discarded. Finisher feed was fed until D42. On D42, non-consumed Finisher was weighed by pen and discarded.
On the day of study completion (D42), five birds from each pen were humanly euthanized and upper, mid and lower gut sections plus liver lobe were collected and stored in neutral buffered formalin. Theses samples were shipped for analysis.

[6] = system: Clostridium Perfringens; assay: microbe, parasite or virus in culture
[7] = Group 1, 0.03 g/kg IRP001 in feed (0-35 days), 0 days of washout
[8] = Group 2, 0.03 g/kg IRP001 in feed (0-35 days), 1 day of washout
[9] = Group 3, 0.03 g/kg IRP001 in feed (0-35 days), 2 days of washout
[10] = Group 4, 0.03 g/kg IRP001 in feed (0-35 days), 4 days of washout
[11] = Group 5, 0.03 g/kg IRP001 in feed (0-35 days), 7 days of washout
[12] = Group 6, 0.03 g/kg IRP001 in feed (0-28 days), 14 days of washout
[13] = Group 11, 0.3 g/kg IRP001 in feed (0-35 days), 7 days of washout
[14] = Group 12, 0.3 g/kg IRP001 in feed (0-28 days), 14 days of washout
[15] = IRP001 0.05 g/kg in feed, pen 2

## COc1ccc2cc3[n+](cc2c1OC)CCc1cc2c(cc1-3)OCO2 [Berberine, berberine]
[1]; 0.03 g/kg feed, before and after washout
  residue level in liver: below the limit of detection
[1]; 0.03 g/kg feed, with or without washout
  mean residue level in muscle tissues: not detectable
[1]; 0.3 g/kg feed, after 4 days washout, listed as IRP001
  residue level in muscle tissues (breast, lower leg, upper leg): below the LLOD
[1]; 0.3 g/kg feed, after a 14-day washout
  residue level in liver: below the limit of quantitation
[1]; [7]
  Mean residue, Breast: <LLOD (outputs indicating values lower than 2 ng/g are considered to be within baseline noise, below the LLOD, and as such are not detectable)
  Mean residue, Lower leg: <LLOD (outputs indicating values lower than 2 ng/g are considered to be within baseline noise, below the LLOD, and as such are not detectable)
  Mean residue, Upper leg: <LLOD (outputs indicating values lower than 2 ng/g are considered to be within baseline noise, below the LLOD, and as such are not detectable)
[1]; [8]
  Mean residue, Breast: <LLOD (outputs indicating values lower than 2 ng/g are considered to be within baseline noise, below the LLOD, and as such are not detectable)
  Mean residue, Lower leg: <LLOD (outputs indicating values lower than 2 ng/g are considered to be within baseline noise, below the LLOD, and as such are not detectable)
  Mean residue, Upper leg: <LLOD (outputs indicating values lower than 2 ng/g are considered to be within baseline noise, below the LLOD, and as such are not detectable)
[1]; [9]
  Mean residue, Breast: <LLOD (outputs indicating values lower than 2 ng/g are considered to be within baseline noise, below the LLOD, and as such are not detectable)
  Mean residue, Lower leg: <LLOD (outputs indicating values lower than 2 ng/g are considered to be within baseline noise, below the LLOD, and as such are not detectable)
  Mean residue, Upper leg: <LLOD (outputs indicating values lower than 2 ng/g are considered to be within baseline noise, below the LLOD, and as such are not detectable)
[1]; [10]
  Mean residue, Breast: <LLOD (outputs indicating values lower than 2 ng/g are considered to be within baseline noise, below the LLOD, and as such are not detectable)
  Mean residue, Lower leg: <LLOD (outputs indicating values lower than 2 ng/g are considered to be within baseline noise, below the LLOD, and as such are not detectable)
  Mean residue, Upper leg: <LLOD (outputs indicating values lower than 2 ng/g are considered to be within baseline noise, below the LLOD, and as such are not detectable)
[1]; [11]
  Mean residue, Breast: <LLOD (outputs indicating values lower than 2 ng/g are considered to be within baseline noise, below the LLOD, and as such are not detectable)
  Mean residue, Lower leg: <LLOD (outputs indicating values lower than 2 ng/g are considered to be within baseline noise, below the LLOD, and as such are not detectable)
  Mean residue, Upper leg: <LLOD (outputs indicating values lower than 2 ng/g are considered to be within baseline noise, below the LLOD, and as such are not detectable)
[1]; [12]
  Mean residue, Breast: <LLOD (outputs indicating values lower than 2 ng/g are considered to be within baseline noise, below the LLOD, and as such are not detectable)
  Mean residue, Lower leg: <LLOD (outputs indicating values lower than 2 ng/g are considered to be within baseline noise, below the LLOD, and as such are not detectable)
  Mean residue, Upper leg: <LLOD (outputs indicating values lower than 2 ng/g are considered to be within baseline noise, below the LLOD, and as such are not detectable)
[1]; Group 10, 0.3 g/kg IRP001 in feed (0-35 days), 4 days of washout
  Mean residue, Breast: <LLOD (outputs indicating values lower than 2 ng/g are considered to be within baseline noise, below the LLOD, and as such are not detectable)
[1]; [13]
  Mean residue, Breast: <LLOD (outputs indicating values lower than 2 ng/g are considered to be within baseline noise, below the LLOD, and as such are not detectable)
  Mean residue, Lower leg: <LLOD (outputs indicating values lower than 2 ng/g are considered to be within baseline noise, below the LLOD, and as such are not detectable)
  Mean residue, Upper leg: <LLOD (outputs indicating values lower than 2 ng/g are considered to be within baseline noise, below the LLOD, and as such are not detectable)
[1]; [14]
  Mean residue, Breast: <LLOD (outputs indicating values lower than 2 ng/g are considered to be within baseline noise, below the LLOD, and as such are not detectable)
  Mean residue, Lower leg: <LLOD (outputs indicating values lower than 2 ng/g are considered to be within baseline noise, below the LLOD, and as such are not detectable)
  Mean residue, Upper leg: <LLOD (outputs indicating values lower than 2 ng/g are considered to be within baseline noise, below the LLOD, and as such are not detectable)
[1]; estimated from typical lifetime consumption of chicken meat, breast or leg muscle tissue
  maximum acceptable residue (lower than one in a million risk of cancer): 13 ng berberine per gram of chicken meat
[1]; 0.03 g/kg IRP001 in feed days 0-28, 14 days of washout, euthanasia day 42
  Mean residue IRP001, Liver: <LLOD (outputs indicating values lower than 2 ng/g are considered to be within baseline noise, below the LLOD, and as such are not detectable)
[1]; 0.03 g/kg IRP001 in feed days 0-35, 0 days of washout, euthanasia day 35
  Mean residue IRP001, Liver: <LLOD (outputs indicating values lower than 2 ng/g are considered to be within baseline noise, below the LLOD, and as such are not detectable)
[1]; 0.03 g/kg IRP001 in feed days 0-35, 1 day of washout, euthanasia day 36
  Mean residue IRP001, Liver: <LLOD (outputs indicating values lower than 2 ng/g are considered to be within baseline noise, below the LLOD, and as such are not detectable)
[1]; 0.03 g/kg IRP001 in feed days 0-35, 2 days of washout, euthanasia day 37
  Mean residue IRP001, Liver: <LLOD (outputs indicating values lower than 2 ng/g are considered to be within baseline noise, below the LLOD, and as such are not detectable)
[1]; 0.03 g/kg IRP001 in feed days 0-35, 4 days of washout, euthanasia day 39
  Mean residue IRP001, Liver: <LLOD (outputs indicating values lower than 2 ng/g are considered to be within baseline noise, below the LLOD, and as such are not detectable)
[1]; 0.03 g/kg IRP001 in feed days 0-35, 7 days of washout, euthanasia day 42
  Mean residue IRP001, Liver: <LLOD (outputs indicating values lower than 2 ng/g are considered to be within baseline noise, below the LLOD, and as such are not detectable)
[2]
  MBC: 1000 µg/mL
[3]
  MIC: 125 µg/mL
[4]; IRP001 0.03 g/kg
  % Cocci Mort.: 0.0b %
  Lesion Scores Average: 1.8b
  Lesion Scores E. acer.: 2.3b
  Lesion Scores E. maxima: 1.8bc
  Lesion Scores E. tenella: 1.2ab
[4]; IRP001 0.10 g/kg
  % Cocci Mort.: 0.0b %
  Lesion Scores Average: 1.5bc
  Lesion Scores E. acer.: 2.1bc
  Lesion Scores E. maxima: 1.5bcd
  Lesion Scores E. tenella: 0.8bcd
[5]; 1 g berberine in 1 kg of commercial feed over 42 days
  adverse reaction or unanticipated event: no adverse reaction or unanticipated event has been observed
[5]; [15]
  Histology index: Coccidia: 3.2
  Histology index: Cumulative Pathology: 9.6
  Histology index: Enteritis: 6.4
[5]; IRP001 0.5 g/kg in feed, pen 3
  Histology index: Coccidia: 1.6
  Histology index: Cumulative Pathology: 7.6
  Histology index: Enteritis: 6.0
[5]; IRP001 1 g/kg in feed, pen 4
  Histology index: Coccidia: 1.0
  Histology index: Cumulative Pathology: 9.2
  Histology index: Enteritis: 8.2
[6]
  MBC: 125 µg/mL
  MIC: 62.5 to 125 µg/mL
[6]; read-out: killing of viable cells
  inhibition at 125 µg/mL: 100%
